This test has as its target T1, PARP-1 (Homo sapiens, UniProt P09874).
T1 construct: gene PARP1
The test is described as follows: colorimetric PARP assay kit (Trevigen), biotinylated NAD incorporation. The format is biochemical.

The results in this text go back to publication PMC2994389 (2010).

T1 sequence (P09874 2-1014): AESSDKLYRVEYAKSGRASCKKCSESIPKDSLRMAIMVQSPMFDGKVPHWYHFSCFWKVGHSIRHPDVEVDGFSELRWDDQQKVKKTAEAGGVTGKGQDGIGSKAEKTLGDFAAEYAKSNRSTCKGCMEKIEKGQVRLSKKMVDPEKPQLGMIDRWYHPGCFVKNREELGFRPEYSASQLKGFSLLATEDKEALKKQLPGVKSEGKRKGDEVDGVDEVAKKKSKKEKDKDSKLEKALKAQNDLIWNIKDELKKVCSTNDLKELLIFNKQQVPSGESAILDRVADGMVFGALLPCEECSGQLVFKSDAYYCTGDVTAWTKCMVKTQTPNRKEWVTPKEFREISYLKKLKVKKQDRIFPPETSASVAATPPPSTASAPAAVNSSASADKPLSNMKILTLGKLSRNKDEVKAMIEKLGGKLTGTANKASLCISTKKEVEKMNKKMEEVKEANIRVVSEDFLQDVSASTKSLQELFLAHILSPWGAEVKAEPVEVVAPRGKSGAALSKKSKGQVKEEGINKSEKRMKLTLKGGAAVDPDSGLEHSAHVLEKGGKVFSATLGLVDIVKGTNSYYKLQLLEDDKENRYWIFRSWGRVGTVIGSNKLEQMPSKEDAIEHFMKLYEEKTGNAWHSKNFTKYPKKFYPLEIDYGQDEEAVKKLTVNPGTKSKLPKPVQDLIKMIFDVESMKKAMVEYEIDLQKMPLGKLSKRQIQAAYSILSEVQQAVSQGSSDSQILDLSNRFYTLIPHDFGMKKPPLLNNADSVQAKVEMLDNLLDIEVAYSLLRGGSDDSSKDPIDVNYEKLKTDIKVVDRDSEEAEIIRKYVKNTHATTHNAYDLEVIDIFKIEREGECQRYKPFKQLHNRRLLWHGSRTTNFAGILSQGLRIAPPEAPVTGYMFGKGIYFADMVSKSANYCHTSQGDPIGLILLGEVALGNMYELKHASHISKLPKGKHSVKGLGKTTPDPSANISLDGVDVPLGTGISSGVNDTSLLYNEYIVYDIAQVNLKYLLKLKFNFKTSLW

As a reminder, the IC50 is the concentration at which inhibition is half-maximal. Turning to `NCCS(=O)(=O)O` [TAU, taurine], the IC50 was 320 µM.
